The test system of assay [1] is diabetes in NOD mice. Description: Alleviation of diabetes in NOD mice (incidence of diabetes, Uristix). Type of assay: in vivo. Particulars: above 6 mMol glucose/l = diabetes. The protocol:
The ability of the lead compound (OdDHL) to alleviate diabetes in NOD mice was determined by treating the mice 3 times per week for 4 weeks at 30 mg/kg as above. DMSO and OHHL were used as controls.
Diabetes was diagnosed using Uristix and a level of above 6 mMol glucose/I was taken to indicate the presence of diabetes.

The subject of assay [2] is murine splenocytes. Briefly: ConA mitogen-stimulated proliferation of murine splenocytes. Type of assay: cell-based, BALB/c mice. The conditions noted are these: ConA 1 μg/ml, 100,000 spleen cells, 1 mM to 0.1 μM. The protocol: The concanavalin A (ConA) cell proliferation assay was used to assess the effect of homoserine lactone (HSL) compounds on T-cell activation and proliferation. Proliferation was assessed by the incorporation of [^3H]-thymidine into DNA. Eight-week-old female BALB/c mice were obtained from Harlan (Bicester, Oxon, UK) and given food and water ad libitum. Splenocyte suspensions were prepared by removing the spleens and placing them into. RPMI 1640 medium. The spleens were forced through 70-μm-pore-size wire gauzes using the plunger from a 5-ml syringe to produce a single cell suspension. The cells were pelleted by centrifugation, and erythrocytes were lysed with 0.017M Tris, 0.144M ammonium chloride buffer, pH 7.2. Leucocytes were washed twice with RPMI 1640 medium with 2% (vol/vol) foetal calf serum (FCS) and resuspended in complete cell culture medium (CTCM) consisting of RPMI 1640 medium with 5% FCS, 2 mM L-glutamine, and 5×10^−5 M 2-mercaptoethanol. […] After the addition of 25 μl of MicroScint-O (Packard) to each well the filters were counted with the Packard TopCount scintillation counter. […]
(§1) In the cell culture assays the number of cells used (mouse splenocytes and human PBMC) was initially optimised to 100,000 cells per well. The optimal dose of ConA of 1 μg/ml used in the cell proliferation assays was determined from ConA titration curves. […]

Assay [3] has as its system human PBMC. Description: ConA mitogen-stimulated proliferation of human PBMC. Format: cell-based. Particulars: ConA 1 μg/ml, 100,000 PBMC. As for the experimental part: Blood specimens were obtained with consent from healthy human volunteers. Human peripheral blood mononuclear cells (PBMC) were isolated from heparinised whole blood by buoyant density centrifugation over Histopaque 1077 (Sigma, Poole, UK) at 600 g for 20 minutes. PBMC harvested from the ‘buffy’ layers were washed twice with RPMI 1640 medium and resuspended in CTCM. HSL compounds were tested at similar dilutions as for murine splenocytes in 200 μl of CTCM, containing 1 μg/ml of ConA and 100,000 PBMC. Human PBMC were incubated for 48 h at 37° C. in 5% CO2-air, followed by pulsing with 0.25 μCi [^3H]-thymidine (see above). After a further incubation of 24 h cells were harvested onto fibreglass filters and then counted in the presence of MicroScint-O with the Packard TopCount.
Concanavalin induced cell proliferation of human peripheral blood mononuclear cells (PBMC) was tracked, as described in I above, by a measurement of counts per minute using the scintillation counter. The inhibitory effect of an HSL compound being tested on cell proliferation was indicated by a reduction in counts per minute. […]
as §1

Assay [4] deals with TNF-alpha production. Briefly: TNF-alpha production from LPS-stimulated human PBMC. Type of assay: cell-based. As for the experimental part:
Bacterial lipopolysaccharide (LPS) stimulates the production of a variety of cytokines, including TNF-alpha, from human PBMC; these cytokines in turn influence the development of T cells, supporting a T helper 1 conducive milieu. Human PBMC prepared from whole blood by buoyant density centrifugation were resuspended in CTCM. HSL compounds were again tested at similar dilutions as for murine splenocytes in 200 μl of CTCM, containing 5×10^−5 μg/ml LPS Escherichia coli strain 055:B5 (Sigma, Poole, UK) and 100,000 PBMC. Following incubation for 24 h at 37° C. in 5% CO2-air, the cell culture supernatants were collected and tested for TNF-alpha levels by ‘sandwich’ ELISA. Briefly, 96-well Nunc MaxiSorp (Life Technologies, Paisley, UK) plates were coated with 50 μl of a 2 μg/ml solution of mouse anti-human TNF-alpha monoclonal antibody (Pharmingen, UK) in 0.05 M carbonate/bicarbonate buffer, pH 9.6 overnight at 4° C. After washing the plates three times with PBS-Tween, which contained phosphate buffered saline (PBS) with 0.5% (vol/vol) Tween 20 (Sigma, Poole, UK), the plates were blocked with 1% (wt/vol) bovine serum albumin (BSA) (Sigma, Poole, UK) at room temperature for 2 h. […] Following four washes, the bound biotinylated antibody was detected with 50 μl of a 1:1,000 dilution of Streptavidin-peroxidase (Pharmingen, UK). […] The enzyme reaction was stopped with 50 μl of 2.5 M H2SO4 after an incubation of 10 minutes at room temperature and the development was read at 450 nm with a spectrophotometric 96-well plate reader (Dynex). […]
Similar studies were carried out using, as the HSL compounds, N-(12-bromo-3-oxododecanoyl)-L-homoserine lactone (12BrOdDHL) and N-(12-hydroxy-3-oxododecanoyl)-L-homoserine lactone (12hydroxyOdDHL) and the plots for these are shown in FIG. 9. […] The IC50 value for dexamethasone was determined to be 500.
as §1

The structures appear in SMILES notation.

Regarding `CCCC(=O)CC(=O)N[C@H]1CCOC1=O` [OHHL, N-(3-oxohexanoyl)-L-homoserine lactone, reference compound], the incidence of diabetes was 7/10 in assay [1] (Week of Experiment 20, 30 mg/kg 3 times per week for 4 weeks) and 12/20 in assay [1] (Week of Experiment 30, 30 mg/kg 3 times per week for 4 weeks, week 30 of experiment).
For the compound `CCCCCC(=O)CC(=O)N[C@H]1CCOC1=O` [OOHL, N-(3-oxooctanoyl)-L-homoserine lactone, reference compound], the “inhibition of splenocyte proliferation ([3H]-thymidine cpm, FIG. 6)” value in assay [2] was “failed to inhibit proliferation”.
Take `CCCCCCCCCCCC(=O)CC(=O)N[C@H]1CCOC1=O` [OtDHL, N-(3-oxotetradecanoyl)-L-homoserine lactone]: the “inhibition of proliferation of human PBMC ([3H]-thymidine cpm, FIG. 7)” value in assay [3] is “inhibited proliferation”. Moreover, the “inhibition of TNF-α secretion (FIG. 8)” value in assay [4] (LPS 5×10^−5 μg/ml, 100,000 PBMC, 24 h, ELISA) was “inhibited the secretion”.
As for `C[C@@H]1C[C@H]2[C@@H]3CCC4=CC(=O)C=C[C@]4(C)[C@@]3(F)[C@@H](O)C[C@]2(C)[C@@]1(O)C(=O)CO` [dexamethasone, reference compound], in assay [4] (LPS-stimulated human PBMC, unit from the IC50 definition, read-out: IC50, concentration which inhibits TNF-α secretion by 50%), the IC50 is 500 µM.

(Values after patent publication US20050014751A1, “Use of n-acyl homoserine lactones for the treatment of insulitis” (priority 2001, published 2005).)
